Species on record: Rattus norvegicus
Assay: DrugMatrix - Regimen: Daily Repeat
Type: toxicity, organism-based, Sprague-Dawley
Parameters: regimen Daily Repeat, gender Male, age 6-8 weeks
Conditions: in vivo, sc, […], route mini-PUMP - SUBCUTANEOUS, dose level High, vehicle 100 % SALINE; for ABSOLUTE LYMPHOCYTE / ABSOLUTE MONOCYTE / BASOPHIL / EOSINOPHIL / ERYTHROCYTE COUNT / HEMATOCRIT / HEMOGLOBIN / LEUKOCYTE COUNT / MEAN CORPUSCULAR HEMOGLOBIN / MEAN CORPUSCULAR HEMOGLOBIN CONCENTRATION / MEAN CORPUSCULAR VOLUME / MONOCYTE / NEUTROPHIL / PLATELET COUNT / ABSOLUTE BASOPHIL / ABSOLUTE EOSINOPHIL / ABSOLUTE SEGMENTED NEUTROPHIL / NUCLEATED RED BLOOD CELLS: tissue Blood
[1] = 0.5 mg/kg, tissue Plasma, time 14 day
[2] = 72 h, dose 0.72 mg/Kg, time 3 day
[3] = 72 h, tissue Plasma, dose 0.72 mg/Kg, time 3 day
[4] = 120 h, dose 0.72 mg/Kg, time 5 day
[5] = 120 h, tissue Plasma, dose 0.72 mg/Kg, time 5 day
[6] = tissue Plasma, dose 0.72 mg/Kg, time 14 day

CC[C@H](C)[C@H](NC(=O)[C@H](Cc1ccc(O)cc1)NC(=O)[C@@H](NC(=O)[C@H](CCCNC(=N)N)NC(=O)[C@@H](N)CC(=O)O)C(C)C)C(=O)N[C@@H](Cc1cnc[nH]1)C(=O)N1CCC[C@H]1C(=O)N[C@@H](Cc1ccccc1)C(=O)O [ANGIOTENSIN II]
ABSOLUTE LYMPHOCYTE (0.5 mg/kg, time 14 day): 9890 cells/µL
ABSOLUTE MONOCYTE (0.5 mg/kg, time 14 day): 390 cells/µL
BASOPHIL (0.5 mg/kg, time 14 day): 0.3%
EOSINOPHIL (0.5 mg/kg, time 14 day): 0.46%
ERYTHROCYTE COUNT (0.5 mg/kg, time 14 day): 7.14 x10E6/uL
HEMATOCRIT (0.5 mg/kg, time 14 day): 45.2%
HEMOGLOBIN (0.5 mg/kg, time 14 day): 14.82 G/DL
LEUKOCYTE COUNT (0.5 mg/kg, time 14 day): 13.29 x10E3/uL
MEAN CORPUSCULAR HEMOGLOBIN (0.5 mg/kg, time 14 day): 20.82 pg
MEAN CORPUSCULAR HEMOGLOBIN CONCENTRATION (0.5 mg/kg, time 14 day): 32.78 G/DL
MEAN CORPUSCULAR VOLUME (0.5 mg/kg, time 14 day): 63.38 fL
MONOCYTE (0.5 mg/kg, time 14 day): 3.02%
NEUTROPHIL (0.5 mg/kg, time 14 day): 20.78%
PLATELET COUNT (0.5 mg/kg, time 14 day): 1204.2 x10E3/uL
ALBUMIN [1]: 3.98 G/DL
ALKALINE PHOSPHATASE [1]: 370.2 u/L
ASPARTATE AMINOTRANSFERASE [1]: 94.8 u/L
BLOOD UREA NITROGEN [1]: 19 mg/dL
CARBON DIOXIDE [1]: 41 mmol/L
CHOLESTEROL [1]: 66.8 mg/dL
CREATINE PHOSPHOKINASE [1]: 324.4 u/L
CREATININE [1]: 0.74 mg/dL
GLUCOSE [1]: 138.2 mg/dL
LACTATE DEHYDROGENASE [1]: 202.4 u/L
PHOSPHORUS [1]: 9.74 mg/dL
POTASSIUM [1]: 5.88 MEQ/L
SODIUM [1]: 149.8 MEQ/L
TOTAL BILIRUBIN [1]: 0.44 mg/dL
URIC ACID [1]: 0.7 mg/dL
ABSOLUTE BASOPHIL [2]: 0 CELLS/uL
ABSOLUTE EOSINOPHIL [2]: 0 CELLS/uL
ABSOLUTE LYMPHOCYTE [2]: 11891.33 CELLS/uL
ABSOLUTE MONOCYTE [2]: 399.33 CELLS/uL
ABSOLUTE SEGMENTED NEUTROPHIL [2]: 1676 CELLS/uL
BASOPHIL [2]: 0%
EOSINOPHIL [2]: 0%
ERYTHROCYTE COUNT [2]: 6.49 x10E6/uL
HEMATOCRIT [2]: 38.87%
HEMOGLOBIN [2]: 14.23 G/DL
LEUKOCYTE COUNT [2]: 13.97 x10E3/uL
MEAN CORPUSCULAR HEMOGLOBIN [2]: 21.93 pg
MEAN CORPUSCULAR HEMOGLOBIN CONCENTRATION [2]: 36.63 G/DL
MEAN CORPUSCULAR VOLUME [2]: 59.9 fL
MONOCYTE [2]: 2.67%
NEUTROPHIL [2]: 12%
NUCLEATED RED BLOOD CELLS [2]: 0 /100WBC
PLATELET COUNT [2]: 1285 x10E3/uL
ALBUMIN [3]: 4.4 G/DL
ALKALINE PHOSPHATASE [3]: 340 u/L
ASPARTATE AMINOTRANSFERASE [3]: 83.67 u/L
BLOOD UREA NITROGEN [3]: 25.67 mg/dL
CARBON DIOXIDE [3]: 28.67 mmol/L
CHOLESTEROL [3]: 90.33 mg/dL
CREATININE [3]: 0.22 mg/dL
GLUCOSE [3]: 151.33 mg/dL
LACTATE DEHYDROGENASE [3]: 469.67 u/L
PHOSPHORUS [3]: 10.63 mg/dL
POTASSIUM [3]: 5.96 MEQ/L
SODIUM [3]: 143.73 MEQ/L
TOTAL BILIRUBIN [3]: 0.2 mg/dL
URIC ACID [3]: 2 mg/dL
ABSOLUTE BASOPHIL [4]: 0 CELLS/uL
ABSOLUTE EOSINOPHIL [4]: 202.67 CELLS/uL
ABSOLUTE LYMPHOCYTE [4]: 15280.67 CELLS/uL
ABSOLUTE MONOCYTE [4]: 168.67 CELLS/uL
ABSOLUTE SEGMENTED NEUTROPHIL [4]: 1814.67 CELLS/uL
BASOPHIL [4]: 0%
EOSINOPHIL [4]: 1.33%
ERYTHROCYTE COUNT [4]: 6.42 x10E6/uL
HEMATOCRIT [4]: 38.03%
HEMOGLOBIN [4]: 14.03 G/DL
LEUKOCYTE COUNT [4]: 17.47 x10E3/uL
MEAN CORPUSCULAR HEMOGLOBIN [4]: 21.87 pg
MEAN CORPUSCULAR HEMOGLOBIN CONCENTRATION [4]: 36.9 G/DL
MEAN CORPUSCULAR VOLUME [4]: 59.23 fL
MONOCYTE [4]: 1%
NEUTROPHIL [4]: 10.33%
NUCLEATED RED BLOOD CELLS [4]: 0 /100WBC
PLATELET COUNT [4]: 1412 x10E3/uL
ALBUMIN [5]: 4.23 G/DL
ALKALINE PHOSPHATASE [5]: 297.67 u/L
ASPARTATE AMINOTRANSFERASE [5]: 85 u/L
BLOOD UREA NITROGEN [5]: 26 mg/dL
CARBON DIOXIDE [5]: 27.33 mmol/L
CHOLESTEROL [5]: 71 mg/dL
CREATININE [5]: 0.21 mg/dL
GLUCOSE [5]: 137 mg/dL
LACTATE DEHYDROGENASE [5]: 451.33 u/L
PHOSPHORUS [5]: 11.73 mg/dL
POTASSIUM [5]: 6.62 MEQ/L
SODIUM [5]: 144.83 MEQ/L
TOTAL BILIRUBIN [5]: 0.2 mg/dL
URIC ACID [5]: 2.03 mg/dL
ABSOLUTE BASOPHIL (dose 0.72 mg/Kg, time 14 day): 0 CELLS/uL
ABSOLUTE EOSINOPHIL (dose 0.72 mg/Kg, time 14 day): 135.4 CELLS/uL
ABSOLUTE LYMPHOCYTE (dose 0.72 mg/Kg, time 14 day): 12908 CELLS/uL
ABSOLUTE MONOCYTE (dose 0.72 mg/Kg, time 14 day): 411.8 CELLS/uL
ABSOLUTE SEGMENTED NEUTROPHIL (dose 0.72 mg/Kg, time 14 day): 3124.8 CELLS/uL
BASOPHIL (dose 0.72 mg/Kg, time 14 day): 0%
EOSINOPHIL (dose 0.72 mg/Kg, time 14 day): 0.8%
ERYTHROCYTE COUNT (dose 0.72 mg/Kg, time 14 day): 6.73 x10E6/uL
HEMATOCRIT (dose 0.72 mg/Kg, time 14 day): 38.96%
HEMOGLOBIN (dose 0.72 mg/Kg, time 14 day): 14.36 G/DL
LEUKOCYTE COUNT (dose 0.72 mg/Kg, time 14 day): 16.58 x10E3/uL
MEAN CORPUSCULAR HEMOGLOBIN (dose 0.72 mg/Kg, time 14 day): 21.34 pg
MEAN CORPUSCULAR HEMOGLOBIN CONCENTRATION (dose 0.72 mg/Kg, time 14 day): 36.86 G/DL
MEAN CORPUSCULAR VOLUME (dose 0.72 mg/Kg, time 14 day): 57.88 fL
MONOCYTE (dose 0.72 mg/Kg, time 14 day): 2.6%
NEUTROPHIL (dose 0.72 mg/Kg, time 14 day): 17.8%
NUCLEATED RED BLOOD CELLS (dose 0.72 mg/Kg, time 14 day): 0 /100WBC
PLATELET COUNT (dose 0.72 mg/Kg, time 14 day): 976.2 x10E3/uL
ALBUMIN [6]: 4.22 G/DL
ALKALINE PHOSPHATASE [6]: 388 u/L
ASPARTATE AMINOTRANSFERASE [6]: 100.6 u/L
BLOOD UREA NITROGEN [6]: 31 mg/dL
CARBON DIOXIDE [6]: 34.2 mmol/L
CHOLESTEROL [6]: 70.6 mg/dL
CREATININE [6]: 0.27 mg/dL
GLUCOSE [6]: 174 mg/dL
LACTATE DEHYDROGENASE [6]: 122.4 u/L
PHOSPHORUS [6]: 11.92 mg/dL
POTASSIUM [6]: 5.67 MEQ/L
SODIUM [6]: 147.54 MEQ/L
TOTAL BILIRUBIN [6]: 0.2 mg/dL
URIC ACID [6]: 2.4 mg/dL

Reference: ChEMBL document CHEMBL3885881, “DrugMatrix”
